Measured values taken from patent US5136093A, “Quaternized panthenol compounds and their use” (priority 1991, dated 1992).
Entries after “also recorded” stand apart in the source; their conditions may differ.

What was measured:
[1] = Rubine dye uptake (substantivity) on human hair swatches/tresses; conditions: for Rubine dye uptake / uptake with respect to the positive control: 50% aqueous solution (panthenol) or 50% solids aqueous solution; for Rubine dye uptake: Demeo Natural White Hair, read at 520 nm; for uptake with respect to the positive control: relative to positive control; for greater uptake than the unquaternized panthenol: human hair swatches
From the text: In the following Examples, the qualitative test for measuring the substantivity of the compounds on hair was the Rubine Dye Test using Pyrazol Fast Bordeaux, as described in U.S. Pat. No. 3,769,398 to Hewitt and Crawford et al. J. Soc. Cosmet. Chem. 31, 273-278 (1980), the entire disclosures of which are incorporated herein by reference. The intensity of the residual pink color, after rinsing, on a hair swatch previously treated with the compound, is an indication of the degree of deposition of the compound onto the hair. Absence of pink color points to a lack of substantivity.
In a one liter reaction flask, fitted with a stirrer, thermometer reflux condenser, heating mantle and a feed funnel, 205 grams of deionized water was charged. 205 grams (1 mole) of d,l-panthenol was charged in the water and stirred until dissolved. In a separate, stirred, one liter vessel, 376 grams (1 mole) of 50% aqueous QUAB 188 (3-Chloro-2-hydroxypropyl trimethylammonium chloride) was reacted with approximately 80 grams (1 mole) of 50% aqueous sodium hydroxide solution, to form a solution of QUAB 151 (2, 3-Epoxypropyl trimethyl ammonium chloride), to a pH of ^~ 9.5. The batch was heated to 50°-60° C., and the QUAB 151 solution was added to the panthenol solution through the feed funnel. The pH of the reaction mixture was checked, and adjusted to ^~ 9.5 with a small additional amount of 50% sodium hydroxide solution, as required. The batch was then agitated at 50°-60° C. for a four hour period to assure complete reaction. The pH of the batch was then adjusted to 6.5-8.0 with a small amount of lactic acid. The resultant product was a clear yellow solution, containing approximately 50% of trimethyl quaternized panthenol.
In a two liter reaction flask, fitted with a stirrer, thermometer, reflux condenser, heating mantle and a feed funnel, 205 grams of deionized water was charged. 205 grams (1 mole) of d,l- panthenol was charged into the water and stirred until dissolved. In a separate stirred one liter vessel, 852 grams (1 mole) of 50% aqueous QUAB 426 (3-Chloro-2-hydroxypropyl stearyl dimethylammonium chloride) was reacted with approximately 80 grams (1 mole) of 50% aqueous sodium hydroxide solution, to form a solution of QUAB 393 (2,3-Epoxypropyl stearyl dimethyl ammonium chloride), to a pH of ^~ 9.5. The batch was heated to 50°-60° C., and the QUAB 393 solution was added to the panthenol solution through the feed funnel. The pH of the reaction mixture was checked, and adjusted to ^~ 9.5 with a small additional amount of 50% sodium hydroxide solution, as required. The batch was then agitated at 50°-60° C. for a four hour period to assure complete reaction. The pH of the batch was then adjusted to 6.5-8.0 with a small amount of lactic acid. The resultant product was a clear yellow solution, containing approximately 50% solids, of which approximately 43% was stearyl dimethyl quaternized panthenol.
Rubine Dye uptake as a measure of substantivity.
Four tresses of Demeo Natural White Hair weighing approximately 0.5 grams each were immersed in 15 grams of the appropriate solution (i.e. positive control, negative control and test samples) for a period of not less than 5 minutes. Each tress was then rinsed five times with 100 ml of water at 120° F.
The tresses were then immersed in a solution of fast Rubine dye for 15 minutes, rinsed five times with 100 ml of water at 105° F., then air dried overnight on filter paper. Each tress was weighed directly into a tared beaker. The dye was stripped from the hair and the solution then brought to the volume with deionized water. The transmission of each sample was then read at 520 nm and its absorbance adjusted to the weight of the hair sample. The dye concentration was calculated from a standard calibration curve.

[2] = Compatibility with formulation ingredients; type: physicochemical; conditions: in finished cosmetic formulation
Protocol: Procedure: The water was weighed into a beaker. Each Phase A ingredient was then added to the water phase in the order listed and mixed thoroughly after the addition of each ingredient. The fragrance was dissolved in the alcohol and Phase B was added to Phase A and mixed until clear and uniform.
Procedure: Phase A was heated to 55° C. Phase B was added and mixed until uniform. Phase C ingredients were added in the order listed and mixed until uniform. When the batch cooled to 45° C., Phase E and Phase F were added and the batch was mixed until uniform. The pH was adjusted with Citric Acid. Phase H was added and the batch was mixed until uniform.
Procedure: The Siltech C-2145CG emulsion was predispersed in the Phase A water in a beaker. The Phase "B" ingredients were dissolved one at a time into the remainder of the water and mixed until clear. Phase "C" ingredients were mixed until clear and uniform. Phase "A" was added to Phase "B" with agitation. Then Phase "C" and "D" were added and the batch was mixed until uniform.
Procedure: Phase A was weighed into a beaker and was then mixed until clear and uniform. Phase B and then Phase C were added to Phase A while mixing. The batch was mixed until clear and uniform.
Procedure: Ucare Polymer JR was dispersed in the water. After the polymer was dispersed, the Methylparaben was added. Phase A was then heated to 60° C. […]

[3] = aqueous solutions; hydrolysis increases as pH varies from optimum; cited from earlier work

CC(C)(CO)C(O)C(=O)NCCCO (stereo not shown) [Panthenol]
Rubine dye uptake [1]: 52.35 mg of dye/50 gm of hair | uptake with respect to the positive control [1]: 36.91%

CCCCCCCCCCCCCCCCCC[N+](C)(C)CC(O)COCC(C)(C)C(O)C(=O)NCCCO (racemic) [stearyl dimethyl quaternized panthenol]
Rubine dye uptake [1]: 66.30 mg of dye/50 gm of hair | uptake with respect to the positive control [1]: 46.74% | greater uptake than the unquaternized panthenol, adjusted for concentration of active material ([1]; 50% solids aqueous solution vs panthenol 50% aqueous solution, adjusted for concentration of active material): ~31% | greater uptake than the unquaternized panthenol ([1]; versus a 50% panthenol solution, not adjusted for active material): ~27% | compatibility with other ingredients [2]: compatible with the anionic surfactants that make up the shampoo; also recorded: compatible with the cationic silicone emulsion (Siltech E-2145CG) and with the hair fixative polymer; also recorded: compatible with the hair fixative polymer and with the ethanol; also recorded: compatible with the other cationic ingredients in the formula; also recorded: compatible with all of the nonionic ingredients in the formula; also recorded: compatible with the anionic soaps and surfactants in the Neutrogena™ soap bar

CC(C)(CO)C(O)C(=O)NCCCO (racemic) [d,l-Panthenol]
optimum pH for stability [3]: approximately 6

CC(C)(CO)[C@@H](O)C(=O)NCCCO [d-Panthenol]
optimum pH for stability [3]: approximately 6

CC(C)(COCC(O)C[N+](C)(C)C)C(O)C(=O)NCCCO (racemic) [trimethyl quaternized panthenol]
greater uptake than the unquaternized panthenol ([1]; versus panthenol solution of comparable concentration): ~7%
